Like-named read-outs stand apart in the source and are kept apart here.
Key:
[1] = Elution of CHX from functionalised borosilicate glass surfaces (UV spectrophotometry); format: physicochemical; conditions: coated glass coverslips in deionised water, 14-day period
Experimental: Chlorhexidine based salts were prepared by combining, at room temperature and under rapid stirring, 100 mL chlorhexidine (as the digluconate salt in aqueous solution at a concentration of 10 mM) and 100 mL of one of a range of anions in aqueous solution, also at an initial concentration of 10 mM, to effect final total concentrations of 5 mM of each. The precipitate was then allowed to adhere on borosilicate glass coverslips. Coverslips (Agar Scientific, Stansted, UK) were cleaned by 10 minutes ultrasonication in acetone followed by 10 minutes ultrasonication in industrial methylated spirits and allowed to air dry. They were immersed in the 200 mL suspension described above while it was rapidly stirred using a magnetic stirring plate. Coverslips were immersed for 30 seconds, removed, immersed in deionised water for 10 seconds to rinse, blotted to remove excess liquid and allowed to dry in air. The elution of soluble CHX from the functionalised glass surfaces was examined using ultraviolet spectrophotometry. 8 specimens of each type were placed in individually labelled cuvettes suitable for ultraviolet spectrophotometry. 2.5 mL deionised water was added to the cuvettes and they were sealed tightly using cuvette lids. These were agitated on an orbital shaker rotating at 150 rpm. […]

[2] = Elution of CHX from CHX-HMP functionalised materials (UV spectrophotometry); format: physicochemical
Experimental: 200 mL of the colloidal suspension was prepared using freshly-prepared reagents (to prevent hydrolysis of the HMP). The specimen was immersed in the rapidly stirred colloid for 30 s, then removed and immersed in deionised water for 10 s to rinse, and then blotted to remove excess liquid and allowed to dry in air.
8 specimens of each material coated with CHX-HMP-5 and CHX-HMP-0.5 nanoparticles were placed in individually labelled cuvettes suitable for ultraviolet spectrophotometry. Deionised water was added to the cuvettes and they were sealed tightly using cuvette lids. These were agitated on an orbital shaker rotating at 150 rpm. The cuvettes were kept sealed and were sampled for chlorhexidine concentration at intervals over a 60-90 day period. Control sets were prepared where the specimens were immersed in deionised water and where they were immersed in a 25 μM CHX solution, which is the concentration of aqueous CHX residual in the CHX-HMP-5 colloidal suspension.

K. pneumoniae = experiment: Growth of microorganisms on polyurethane specimens; format: cell-based, Klebsiella pneumoniae; design: key: −: complete inhibition; +: slight growth (growth observed at dilutions between 10^−1-10^−3); ++: moderate growth (growth observed at dilutions between 10^−4-10^−6); +++: high growth (growth at dilutions between 10^−7-10^−12); conditions: 24 h incubation
From the text: (§1) Extensive microbiology work has also been completed. […] Key: −complete inhibition; +slight growth (growth observed at dilutions between 10^−1-10^−3); ++ moderate growth (growth observed at dilutions between 10^−4-10^−6); +++ high growth (growth at dilutions between 10^−7-10^−12).

P aeruginosa = experiment: Growth of microorganisms on polyurethane specimens; format: cell-based, Pseudomonas aeruginosa; design: key: −: complete inhibition; +: slight growth (growth observed at dilutions between 10^−1-10^−3); ++: moderate growth (growth observed at dilutions between 10^−4-10^−6); +++: high growth (growth at dilutions between 10^−7-10^−12); conditions: 24 h incubation
From the text: as §1

MRSA = experiment: Growth of microorganisms on polyurethane specimens; format: cell-based, Staphylococcus aureus; design: key: −: complete inhibition; +: slight growth (growth observed at dilutions between 10^−1-10^−3); ++: moderate growth (growth observed at dilutions between 10^−4-10^−6); +++: high growth (growth at dilutions between 10^−7-10^−12); conditions: 24 h incubation in bacteria growth medium
From the text: as §1

E. coli = experiment: Growth of microorganisms on polyurethane specimens; format: cell-based, Escherichia coli; design: key: −: complete inhibition; +: slight growth (growth observed at dilutions between 10^−1-10^−3); ++: moderate growth (growth observed at dilutions between 10^−4-10^−6); +++: high growth (growth at dilutions between 10^−7-10^−12); conditions: 24 h incubation
From the text: as §1

S. mutans [3] = conditions: reported; cited from earlier work
S. mutans [4] = experiment: Reported MIC for S. mutans; format: cell-based; conditions: Streptococcus mutans, conversion of the reported 0.125%
MRSA bacteria = experiment: Microbiology on EVA samples functionalised with CHX nanoparticles; format: cell-based, Staphylococcus aureus; conditions: EVA specimens, 18 h incubation in 1 mL growth medium
Experimental: EVA specimens were functionalised by 30 s immersion in a colloidal suspension of CHX-HMP-5 in water followed by 10 s immersion in deionised water (“low concentration”) or without subsequent immersion in deionised water (“high concentration”). These samples were then exposed to cultures of MRSA bacteria. They were then immersed in 1 mL, growth medium and incubated for 18 h. According to the release experiments in this time the EVA specimen should release around 6 μM per m^2 material. Surface area of the specimen was 0.000182 m^2 so the expected total release should be […] CHX into 1 mL giving a resultant concentration of 1.1 μM CHX.

MRSA biofilm = experiment: Static biofilm model (crystal violet); format: cell-based, Staphylococcus aureus; conditions: MRSA 48 h static biofilm, 2 h treatment; word qualifies 'disruption'
Experimental: (§2) Bacterial strains were initially grown for 16 h and these stationary phase cultures were harvested by centrifugation, and adjusted to OD650=0.1. Biofilms were grown in 50 μL appropriate media at 37° C. for 48 h, aerobically then the media was removed and discarded. Loosely adherent bacteria were removed by washing the biofilms twice with 100 μl PBS. Chlorhexidine or chlorhexidine nanoparticles diluted in PBS were added to the biofilms using a doubling dilution as described above (0-25 μM). The plates were incubated for 2 h at 37° C.; to estimate biomass, unattached cells were gently aspirated and discarded, and adherent cells were washed twice with PBS and stained with crystal violet (0.25% w/v) for 10 min; following a further two washes with PBS, cell-bound crystal violet was re-solubilized with 7% acetic acid, and absorbance measured at 595 nm (A595).

P. aeruginosa biofilm = experiment: Static biofilm model (crystal violet); format: cell-based, Pseudomonas aeruginosa; conditions: P. aeruginosa 48 h static biofilm, 2 h treatment; word qualifies 'disruption'
Experimental: as §2

[5] = system: Pseudomonas aeruginosa NCIMB 8626 (ATCC 9027); experiment: Minimum inhibitory concentration, planktonic bacteria; format: cell-based; conditions: P. aeruginosa, 16 h; value for CHX-HMP-5 is minimum tested
Experimental: (§3) Methicillin-resistant Staphylococcus aureus (MRSA; NCTC13142) was cultured in Mueller-Hinton media. Pseudomonas aeruginosa NCIMB 8626 (ATCC 9027) was cultured in nutrient broth (NB) or nutrient agar (NA). All cultures were incubated at 37° C. aerobically throughout the study.
(§4) Cultures were incubated for 16 h at 37° C. in aerobic conditions, optical density (CD) readings were measured at 620 nm (A620) using a standard microtitre plate reader (SpectroStar Nano; BMG Labtech).

[6] = system: Methicillin-resistant Staphylococcus aureus (MRSA; NCTC13142); experiment: as above; format: cell-based; conditions: 16 h, 37° C., OD 620 nm, listed as 25 μM chlorhexidine
Experimental: as §3, §4

[7] = composite resins supplemented with pulverised CHX diacetate; cited from earlier work
[8] = result in words, 'Little or no' continues 'significant release'

N=C(NCCCCCCNC(=N)NC(=N)Nc1ccc(Cl)cc1)NC(=N)Nc1ccc(Cl)cc1 [compound 2, chlorhexidine]
CHX Release Period [1]: 48 to 72 h

N=C(NCCCCCCNC(=N)NC(=N)Nc1ccc(Cl)cc1)NC(=N)Nc1ccc(Cl)cc1 [Comparative Example 7, chlorhexidine]
CHX Release Period [2, 8]: Little or no

N=C(NCCCCCCNC(=N)NC(=N)Nc1ccc(Cl)cc1)NC(=N)Nc1ccc(Cl)cc1 [Comparative Example 4, chlorhexidine]
CHX Release Period [2, 8]: No release

N=C(NCCCCCCNC(=N)NC(=N)Nc1ccc(Cl)cc1)NC(=N)Nc1ccc(Cl)cc1 [Comparative Example 5, chlorhexidine]
CHX Release Period ([2]; functionalised material in deionised water, 60-90 day period): >60 days

N=C(NCCCCCCNC(=N)NC(=N)Nc1ccc(Cl)cc1)NC(=N)Nc1ccc(Cl)cc1 [80 μM CHX, chlorhexidine]
growth of microorganisms on polyurethane specimens (K. pneumoniae): ++ | growth of microorganisms on polyurethane specimens (P aeruginosa): ++ | growth of microorganisms on polyurethane specimens (MRSA): ++ | growth of microorganisms on polyurethane specimens (E. coli): ++

N=C(NCCCCCCNC(=N)NC(=N)Nc1ccc(Cl)cc1)NC(=N)Nc1ccc(Cl)cc1 [CHX digluconate]
MIC (S. mutans [3]): 0.125 % by mass | MIC (S. mutans [4]): ~1400 µM

N=C(NCCCCCCNC(=N)NC(=N)Nc1ccc(Cl)cc1)NC(=N)Nc1ccc(Cl)cc1 [compound 8, chlorhexidine]
recovery of MRSA / efficacy against MRSA (MRSA bacteria): not efficacious | Effect on biofilm (MRSA biofilm): MRSA: slight | Effect on biofilm (P. aeruginosa biofilm): P.a.: slight | MIC, soluble CHX conc [5]: P.a.: (25 μM) | MIC, soluble CHX conc [6]: not efficacious

N=C(NCCCCCCNC(=N)NC(=N)Nc1ccc(Cl)cc1)NC(=N)Nc1ccc(Cl)cc1 [Comparative Example 6, chlorhexidine]
CHX Release Period [2, 8]: No release

N=C(NCCCCCCNC(=N)NC(=N)Nc1ccc(Cl)cc1)NC(=N)Nc1ccc(Cl)cc1 [CHX diacetate]
time to plateau of CHX release [7]: around 7 days

Source: patent US9717248B2, “Antibacterial micro- and nanoparticles comprising a chlorhexidine salt, method of production and uses thereof” (The University of Bristol, priority 2013, dated 2017)
